Data on 16 molecules can be found in patent US11730720B2, “ALK5 inhibitors” (THERAVANCE BIOPHARMA R&D IP, LLC, priority 2018, dated 2023).

The target of assay [1] is T1, recombinant human ALK5 (TGF-βR1) protein (Homo sapiens, UniProt P36897).
T1 construct: purchased Life Technologies PR9075A
T1 sequence (P36897 34-503): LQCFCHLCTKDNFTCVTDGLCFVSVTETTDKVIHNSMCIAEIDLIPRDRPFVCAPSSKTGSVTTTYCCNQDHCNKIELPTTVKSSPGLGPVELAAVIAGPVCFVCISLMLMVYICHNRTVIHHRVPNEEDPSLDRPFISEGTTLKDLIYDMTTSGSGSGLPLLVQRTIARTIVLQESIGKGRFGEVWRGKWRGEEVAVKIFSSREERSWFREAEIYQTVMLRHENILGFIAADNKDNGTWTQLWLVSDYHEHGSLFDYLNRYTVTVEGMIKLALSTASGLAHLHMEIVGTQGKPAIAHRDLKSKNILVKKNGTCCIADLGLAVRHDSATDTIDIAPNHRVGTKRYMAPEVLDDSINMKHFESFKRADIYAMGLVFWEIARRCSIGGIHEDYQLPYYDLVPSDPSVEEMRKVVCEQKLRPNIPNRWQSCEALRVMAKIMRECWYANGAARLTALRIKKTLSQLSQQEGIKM
Description: Biochemical ALK5 (TGF-βR1) assay to measure pKi (LANCE Ultra ULight kinase assay). The conditions noted are these: apparent pKi, converted from pIC50 using the Cheng-Prusoff equation. The protocol: Example 254: Biochemical ALK5 (TGF-βR1) Assay to Measure pKi
The assays were performed in a 384-well plate (24 columns×16 wells/rows). An Echo® 550 Liquid Handler (Labcyte) was used to prepare various intermediate concentrations of compounds of the present disclosure in 100% DMSO. From the intermediate concentrations, a range of concentrations (from 10 μM to 25 pM corresponding to volumes up to 105 nL) were prepared and ejected into a final assay plate to be used to create individual dose response curves for each of the subject compounds. To a separate column within the assay plate, 105 nL of DMSO in each well was used to establish a maximum assay signal. Additionally, 105 nL of 100 μM SD-208, a selective TGF-βR1 inhibitor (Catalog #S7624, Selleck Chemicals), was used in another column of wells to establish a minimal assay signal.
With a multidrop dispenser, 8 μL of enzyme mixture (1.25× final) was added to each well. The enzyme mixture consisted of 250 pM ALK5 enzyme and 62.5 nM peptide substrate (LANCE® (lanthanide chelate excite) Ultra ULight™-DNA Topoisomerase 2-alpha (Thr1342)) prepared in assay buffer (50 mM HEPES, 10 mM MgCl2, 1 mM EGTA, 0.01% Tween-20, pH 7.5 at room temperature) with 2 mM DTT added prior to use. The plate was then sealed with an adhesive seal and allowed to equilibrate for 60 minutes at room temperature.
Next, 2 μL of 125 μM ATP (5× final, 125 μM ATP prepared in assay buffer with 2 mM DTT) was added to the incubated mixtures, covered with a MicroClime® Environmental Lid (Product No. LLS-0310, Labcyte) and immediately transferred to 37° C. The reactions were allowed to proceed at 37° C. for 60 minutes before terminating with the addition of 10 μL of detection antibody (LANCE® (lanthanide chelate excite) Ultra Europium-anti-phospo-DNA Topoisomerase 2-alpha (Thr1342)) in detection mixture (12 mM EDTA, 4 nM detection antibody prepared in detection buffer (50 mM Tris-HCl, 150 mM NaCl, 0.5% BSA (Fraction V), pH 7.0)) at room temperature. The plate was then read on a Perkin Elmer EnVision Plate Reader using europium specific reader settings with excitation and emission wavelengths set to 320 or 340 nm and 665 nm, respectively.
For dose-response analyses, percent inhibition versus compound concentrations were plotted, and pIC50 values were determined from a 4-parameter robust fit model with GraphPad Prism V5 Software (GraphPad Software, Inc., La Jolla, Calif.). This model obtains pIC50 values by fitting the sigmodial dose-response (variable slope) equation to the data. Results were expressed as pIC50 (negative logarithm of IC50) and subsequently converted to pKi (negative logarithm of dissociate constant, K) using the Cheng-Prusoff equation.
The higher the value of pKi (lower value of Ki), the greater the inhibition of ALK5 activity.
Background: Time-resolved FRET reads energy transfer from a long-lived donor to a nearby acceptor.

Assay [2] deals with TGF-β-stimulated SMAD3 phosphorylation in BEAS-2B cells. Description: Cellular ALK5 potency assay, inhibition of TGF-β stimulated pSMAD3 formation in BEAS-2B cells. Type of assay: cell-based. The conditions noted are these: Homo sapiens, inhibition of TGF-β (10 ng/mL) stimulated pSMAD3 formation, 1 hour compound incubation, read-out: BEAS2B pIC50 (converted). Here is the method: Example 255: Cellular ALK5 Potency Assay to Measure pIC50, Inhibition of TGF-β Stimulated pSMAD3 Formation in BEAS-2B Cells
The potency of compounds of the present disclosure for inhibition of TGF-β-stimulated SMAD3 phosphorylation was measured in BEAS-2B cells, a human lung epithelial cell line. TGF-β signals through activin receptor-like kinase 5 (ALK5) immediately prior to SMAD3 phosphorylation.
BEAS-2B cells were grown using 50% DMEM (Life Technologies) and 50% F-12 (Life Technologies) media, supplemented with 10% Fetal Bovine Serum (ATCC), 25 mM HEPES (Life Technologies), and 1×Pen-Strep (Life Technologies). Cells were cultured in a humidified incubator set at 37° C., 5% CO2, and trypsonized using 0.25% Trypsin with 0.5% polyvinylpyrrolidone (PVP).
For the assay, BEAS-2B cells were seeded at 7,500 cells/well (25 μL/well) in a 384-well plate and cultured overnight. Before dosing, growth media was aspirated and the wells were rinsed with HBSS Buffer (HBSS with Calcium and Magnesium, Life Technologies) supplemented with 25 mM HEPES (Life Technologies) and 1% Bovine Serum Albumin (Roche). Compounds were serially diluted in DMSO, then further diluted with supplemented HBSS Buffer (50 μL/well) to create a compound plate 3× of the final assay concentration, at 0.3% DMSO. The diluted compounds were then added to the cells (8 μL/well) and incubated at 37° C., 5% CO2 for 1 hour. After the compound incubation, TGF-β (R&D Systems) reconstituted in supplemented HBSS Buffer was added to the cells ([…], final concentration 10 ng/mL) and incubated for a further 30 minutes, after which the cells were immediately lysed with AlphaLISA lysis buffer (PerkinElmer). AlphaLISA Acceptor and Detector beads (PerkinElmer) were added 2 hours apart, then incubated overnight to be read the next day. The potency of the compound was determined through analysis of dose-dependent quantified changes in pSMAD3 signal from baseline (non-compound treated TGF-β stimulated cells). Data are expressed as pIC50 (negative decadic logarithm IC50) values.

For `CN(C)C1CCN(c2cnc3ccc(-c4c[nH]nc4-c4cc(Cl)c(F)cc4F)nc3c2)C1` (racemic) [Compound 6-22, rac-(3S)-1-[6-[3-(5-chloro-2,4-difluoro-phenyl)-1H-pyrazol-4-yl]-1,5-naphthyridin-3-yl]-N,N-dimethyl-pyrrolidin-3-amine], the Ki in assay [1] is 0.0398 to 0.316 nM. Further, the IC50 in assay [2] is 25.1 to 158 nM.

As to `CNC(=O)C1CN(c2cnc3ccc(-c4c[nH]nc4-c4cc(Cl)c(F)cc4F)nc3c2)CCN1` (racemic) [Compound 6-25, rac-(2R)-4-[6-[3-(5-chloro-2,4-difluoro-phenyl)-1H-pyrazol-4-yl]-1,5-naphthyridin-3-yl]-N-methyl-piperazine-2-carboxamide], in assay [1], the Ki was 0.0398 to 0.316 nM. Besides, the IC50 in assay [2] was 25.1 to 158 nM.

Consider `Fc1cc(F)c(-c2n[nH]cc2-c2ccc3ncc(NCC4CCCN4)cc3n2)cc1Cl` (racemic) [Compound 6-73, 6-[3-(5-chloro-2,4-difluoro-phenyl)-1H-pyrazol-4-yl]-N-[[rac-(2S)-pyrrolidin-2-yl]methyl]-1,5-naphthyridin-3-amine], for which the Ki in assay [1] was 0.398 to 3.16 nM. The IC50 in assay [2] is 25.1 to 158 nM.

Turning to `CN(C)C1CCN(c2cnc3ccc(-c4c[nH]nc4-c4ccc(F)c(F)c4)nc3c2)C1` (racemic) [Compound 8-5, rac-(3S)-1-[6-[3-(3,4-difluorophenyl)-1H-pyrazol-4-yl]-1,5-naphthyridin-3-yl]-N,N-dimethyl-pyrrolidin-3-amine], the Ki in assay [1] is 0.398 to 3.16 nM. Besides, the IC50 in assay [2] was 25.1 to 158 nM.

Turning to `COCc1cccc(-c2n[nH]cc2-c2ccc3ncc(N4CCC(N(C)C)C4)cc3n2)c1` (racemic) [Compound 14-4, rac-(3S)-1-[6-[3-[3-(methoxymethyl)phenyl]-1H-pyrazol-4-yl]-1,5-naphthyridin-3-yl]-N,N-dimethyl-pyrrolidin-3-amine], the Ki in assay [1] was 3.98 to 31.6 nM. Besides, the IC50 in assay [2] is 25.1 to 158 nM.

With `CN(C)C1CCN(c2cnc3ccc(-c4nc[nH]c4-c4cc(Cl)ccc4F)cc3c2)C1` (racemic) [Compound 17-5, rac-(3S)-1-[6-[5-(5-chloro-2-fluoro-phenyl)-1H-imidazol-4-yl]-3-quinolyl]-N,N-dimethyl-pyrrolidin-3-amine], the Ki in assay [1] was 0.0398 to 0.316 nM. Further, in assay [2], the IC50 was 25.1 to 158 nM.

For `CN(C)C1CCN(c2cnc3ccc(-c4c(-c5cc(Cl)ccc5F)nc5ccccn45)cc3c2)C1` (racemic) [Compound 19-7, rac-(3S)-1-[6-[2-(5-chloro-2-fluoro-phenyl)imidazo[1,2-a]pyridin-3-yl]-3-quinolyl]-N,N-dimethyl-pyrrolidin-3-amine], the Ki in assay [1] is 0.0398 to 0.316 nM. Further, the IC50 in assay [2] is 200 to 1260 nM.

In the case of `C[C@@H]1CN(CCNc2cnc3ccc(-c4c[nH]nc4-c4cc(Cl)ccc4F)nc3c2)C[C@H](C)N1` [Compound 1-1, 6-(3-(5-chloro-2-fluorophenyl)-1H-pyrazol-4-yl)-N-(2-((3S,5R)-3,5-dimethylpiperazin-1-yl)ethyl)-1,5-naphthyridin-3-amine], the Ki in assay [1] is 0.0398 to 0.316 nM. Further, in assay [2], the IC50 was 25.1 to 158 nM.

Consider `CC(C)N1CCN(CCNc2cnc3ccc(-c4c[nH]nc4-c4cc(Cl)ccc4F)nc3c2)CC1` [Compound 1-2], for which, in assay [1], the Ki is 0.0398 to 0.316 nM. Also, the IC50 in assay [2] was not above 20 nM.

For `CN1CCC(Nc2cnc3ccc(-c4c[nH]nc4-c4cc(Cl)ccc4F)nc3c2)CC1` [Compound 1-3, 6-[3-(5-chloro-2-fluoro-phenyl)-1H-pyrazol-4-yl]-N-(1-methyl-4-piperidyl)-1,5-naphthyridine-3-amine], in assay [1], the Ki is 0.0398 to 0.316 nM. Also, in assay [2], the IC50 is not above 20 nM.

For `CN1CCC(Nc2cnc3ccc(-c4c[nH]nc4-c4cc(Cl)ccc4F)nc3c2)C1` (centres unmarked) [Compound 1-4, 6-[3-(5-chloro-2-fluoro-phenyl)-1H-pyrazol-4-yl]-N-(1-methylpyrrolidin-3-yl)-1,5-naphthyridin-3-amine], the Ki in assay [1] is 0.398 to 3.16 nM. For the same molecule, in assay [2], the IC50 was 25.1 to 158 nM.

With `CC(C)N1CCN(C(C)(C)CNc2cnc3ccc(-c4c[nH]nc4-c4cc(Cl)ccc4F)nc3c2)CC1` [Compound 1-5, 6-[3-(5-chloro-2-fluoro-phenyl)-1H-pyrazol-4-yl]-N-[2-(4-isopropylpiperazin-1-yl)-2-methyl-propyl]-1,5-naphthyridin-3-amine], the Ki in assay [1] is 3.98 to 31.6 nM. Besides, the IC50 in assay [2] is 25.1 to 158 nM.

`COCC(C)(CNc1cnc2ccc(-c3c[nH]nc3-c3cc(Cl)ccc3F)nc2c1)N1CCN(C(C)C)CC1` (centres unmarked) [Compound 1-6, 6-[3-(5-chloro-2-fluoro-phenyl)-1H-pyrazol-4-yl]-N-[2-(4-isopropylpiperazin-1-yl)-3-methoxy-2-methyl-propyl]-1,5-naphthyridin-3-amine]: the Ki in assay [1] was 0.398 to 3.16 nM. For the same molecule, the IC50 in assay [2] was 200 to 1260 nM.

In the case of `CN1CC(Nc2cnc3ccc(-c4c[nH]nc4-c4cc(Cl)ccc4F)nc3c2)C1` [Compound 1-7, 6-[3-(5-chloro-2-fluoro-phenyl)-1H-pyrazol-4-yl]-N-(1-methylazetidin-3-yl)-1,5-naphthyridin-3-amine], in assay [1], the Ki is 0.0398 to 0.316 nM. Moreover, the IC50 in assay [2] is not above 20 nM.

As for `Fc1ccc(Cl)cc1-c1n[nH]cc1-c1ccc2ncc(NCCN3CCC3)cc2n1` [Compound 1-8, N-[2-(azetidin-1-yl)ethyl]-6-[3-(5-chloro-2-fluoro-phenyl)-1H-pyrazol-4-yl]-1,5-naphthyridin-3-amine], the Ki in assay [1] was 0.0398 to 0.316 nM. Further, the IC50 in assay [2] is not above 20 nM.

Regarding `CN1CCN(CC(C)(C)Nc2cnc3ccc(-c4c[nH]nc4-c4cc(Cl)ccc4F)nc3c2)CC1` [Compound 1-9, 6-[3-(5-chloro-2-fluoro-phenyl)-1H-pyrazol-4-yl]-N-[1,1-dimethyl-2-(4-methylpiperazin-1-yl)ethyl]-1,5-naphthyridin-3-amine], in assay [1], the Ki is 3.98 to 31.6 nM. Moreover, the IC50 in assay [2] was 200 to 1260 nM.
